Data published in patent US20240261253A1, “DAUR[…] AND IT'S USE IN MEDICINE” (Phytotherapeutix Ltd., priority 2021, published 2024).
Converted amounts (≈) assume the structure as drawn. Where two headings read alike, the source gives them in different places.

Columns and labels:
[1] = cytotoxicity (cell viability) in 16HBE cells; assay type: cell-based; settings: human, read-out: CC50 (50% cell viability)
Procedure: (§1) A dilution series of each test compound (8-point, 10-fold dose titration) was added prophylactically for one hour, to cells. Cells were infected with virus for one hour, at a single concentration (100×TCID50 (Median Tissue Culture Infectious Dose). Additional media was added to the wells, with equivalent concentrations of compound added in for the duration of the study. Vehicle and positive control wells were set up to control for any influence of the compounds alone on cell viability. Cells were visually inspected for the appearance of any cytopathic effects (CPE). A cell viability assay was performed once CPE was complete.
(§2) • EC50: The concentration which results in 50% viral inhibition, following the addition of compounds. • CC50: The concentration which results in 50% cell viability, following the addition of compounds.
(§3) • 1. Cells permissible to infection, indicated in the Conditions Table, were grown and seeded into 96-well plates to a confluency of 80-90%. • 2. The test compounds were serially diluted 10-fold into 8 concentrations in total. The serial dilution was added to the cells for 1 hour prior to infection with each virus. Positive control compounds were included using the same treatment regimen. • 3. After pre-treatment, each virus was added to the cells for 1 h at 100×TCID50. A mock infection of blank media was added to the uninfected controls. • 4. After infection, the virus/media was removed and an overlay medium was added, with equivalent concentrations of the test compounds added in. • 5. […] A cell viability assay was performed on all conditions, with cells receiving the test treatment compared to the vehicle treated and uninfected controls.

[2] = system: Human Coronavirus OC43; test: inhibition of HCoV OC43 infection in H292 cells (CPE/cell viability assay); assay type: cell-based, Human Coronavirus OC43 (Beta); settings: for efficacy against HCoV OC43: H292 cells
Procedure: as §1
(§4) Inhibition was calculated as follows: […]
(§5) where: • A: mean optical density of test, • B: mean optical density of virus controls, • C: mean optical density of cell controls. • Negative values occur when A<B, due either to natural variation or compound toxicity.
as §2, §3

[3] = cytotoxicity (cell viability) in H292 cells; assay type: cell-based; settings: human, read-out: CC50 (50% cell viability)
Procedure: as §1, §2, §3

[4] = system: uninfected H9 cells; settings: cited from earlier work
[5] = system: HIV; settings: cited from earlier work
[6] = system: Human Coronavirus 229E; test: inhibition of HCoV 229E infection in 16HBE cells (CPE/cell viability assay); assay type: cell-based, Human Coronavirus 229E (Alpha)
Procedure: as §1, §4, §5, §2
• 1. Cells permissible to infection, indicated in the Conditions Table, were grown and seeded into 96-well plates to a confluency of 80-90%. • 2. The test compounds were serially diluted 10-fold into 8 concentrations in total. […]

[7] = 5 mg/kg i.p., rodents; cited from earlier work
[8] = system: 16HBE cells; test: cytotoxicity (cell viability) in 16HBE cells; assay type: cell-based; settings: 5 days
Procedure: as §1, §2, §3

[9] = system: H292 cells; test: cytotoxicity (cell viability) in H292 cells; assay type: cell-based; settings: 5 days
Procedure: as §1, §2, §3

CC(C)=CCC/C(C)=C/CC[C@@]1(C)C=Cc2c(cc(C)c(C(=O)O)c2O)O1 [(+)-DCA, (S,E)-2-(4,8-dimethylnona-3,7-dien-1-yl)-5-hydroxy-2,7-dimethyl-2H-chromene-6-carboxylic acid]
CC50 at 5 days [1]: 20.7 µg/mL (≈ 55.9 µM) | efficacy against HCoV OC43 [2]: Efficacy was seen | CC50 at 5 days [3]: 9.27 µg/mL (≈ 25 µM) | inhibition of uninfected H9 growth EC50 [4]: 21.1 µg/mL | anti-HIV activity EC50 ([5]; acutely infected H9 cells): 0.00567 µg/mL

CCC(CC)COC(=O)[C@H](C)N[P@](=O)(OC[C@H]1O[C@@](C#N)(c2ccc3c(N)ncnn23)[C@H](O)[C@@H]1O)Oc1ccccc1 [Remdesivir, reference compound]
EC50 ([2]; Betacoronavirus 1, OC43, NCI-H292, 120 h, HCoV OC43, H292 cells, 5 days, read-out: EC50 (50% viral inhibition)): 0.029 µg/mL | EC50 ([2]; Betacoronavirus 1, OC43, NCI-H292, HCoV OC43, read-out: EC50): 10 to 100 nM | EC50 ([6]; 16HBE, read-out: EC50): 10 to 100 nM | EC50 ([6]; 120 h, 16HBE cells, 5 days, read-out: EC50 (50% viral inhibition)): 0.023 µg/mL

CC(C)=CCC[C@]1(C)[C@@H]2CC[C@]3(C)Oc4cc(C)c(C(=O)O)c(O)c4[C@H]1[C@H]23 [Rhododaurichromanic acid B]
anti-HIV activity ([5]; in vitro): no anti-HIV activity

CC(C)=CCC/C(C)=C/CCC1(C)C=Cc2c(cc(C)c(C(=O)O)c2O)O1 (stereo in doubt) [(−)-DCA, (−)-(2S)-2-[(3E)-4,8-dimethylnona-3,7-dienyl]-5-hydroxy-2,7-dimethylchromene-6-carboxylic acid]
CC50 at 5 days [1]: 35.7 µg/mL (≈ 96.4 µM) | EC50 ([2]; Betacoronavirus 1, OC43, NCI-H292, 120 h, read-out: EC50 (50% viral inhibition), HCoV OC43, H292 cells, 5 days): 4.39 µg/mL | efficacy against HCoV OC43 [2]: Efficacy was seen | EC50 (50% viral inhibition) ([2]; HCoV OC43, H292 cells, 5 days): 4.382 µg/mL (≈ 11.8 µM) | CC50 at 5 days [3]: 15.1 µg/mL (≈ 40.8 µM)

CCCCCc1cc2c(c(O)c1C(=O)O)C=CC(C)(CCC=C(C)C)O2 (centres unmarked) [CBCA, 5-hydroxy-2-methyl-2-(4-methylpent-3-enyl)-7-pentylchromene-6-carboxylic acid]
plasma Cmax [7]: approx. 4 μg/mL | side effects [7]: without any major side effects

CC(C)=CCC/C(C)=C/CCC1(C)C=Cc2c(cc(C)c(C(=O)O)c2O)O1 (racemic) [1:1 mixture of (+)-DCA with (−)-DCA, (E)-2-(4,8-dimethylnona-3,7-dien-1-yl)-5-hydroxy-2,7-dimethyl-2H-chromene-6-carboxylic acid]
CC50 (50% cell viability) [8]: 8.225 µg/mL | CC50 at 5 days [1]: 8.2 µg/mL | efficacy against HCoV OC43 ([2]; listed as 1:1 mix of both): Efficacy was seen | CC50 (50% cell viability) [9]: 5.938 µg/mL | CC50 at 5 days [3]: 5.9 µg/mL

CC(C)=CCC[C@@]1(C)[C@@H]2CC[C@]3(C)Oc4cc(C)c(C(=O)O)c(O)c4[C@H]1[C@H]23 [Rhododaurichromanic acid A]
anti-HIV activity EC50 ([5]; in vitro): 0.37 µg/mL
